Literature values in patent US20260008814A1, “DEVELOPMENT OF PEPTIDES WITH ANTI-CANCER AND ANTIMICROBIAL PROPERTIES” (YILDIZ TEKNIK ÜNIVERSITESI DÖNER SERMAYE ISLETME MÜD, priority 2023, published 2026).

Tested on: F. nucleatum attachment and invasion of HCT116

## ASANWTIQYND
  inhibition of F. nucleatum attachment and invasion: inhibitory peptide
